Assay [1] relates to CD8+ CD45RA/CD27 T cell subsets. Description: Telomerase activity (TRAP assay) with PDL-1/2 blockade and p38 inhibitor. Type of assay: cell-based, human. To be noted: 4 days anti-CD3 and irradiated autologous APCs. From the text:
It was next investigated whether p38 or PD-1 signalling were involved in the decreased telomerase activity in EMRA CD8^+ T cells. […] Once again, CD8^+ T cell subsets were stimulated with anti-CD3 and irradiated autologous APCs in the presence of both inhibitors separately or together as in FIG. 4. […] The blockade of PD-1 signalling had no effect on telomerase activity in any of the subsets.
Purified CD8^+ T cell populations (2×10^5 cells) were snap-frozen after stimulation for 4 days with 0.5 μg/ml plate coated anti-CD3 (OKT3) and irradiated APCs. Telomerase activity was determined using the telomeric repeat amplification protocol (TRAP; TRAPeze telomerase detection kit; Chemicon) according to the protocol provided by the manufacturer. The absolute numbers of CD8^+ T cells were enumerated using trypan blue (Sigma). The TRAP assay was performed with samples adjusted to 500 Ki67^+ T cells per reaction to control for the different extents of proliferation in the different subsets after activation.
Signalling through PD-1 on purified total CD8^+ and CD27/CD45RA defined CD8^+ subsets was blocked by adding 10 μg/ml each of anti-PD-L1 (29E.2A3.C6) and anti-PD-L2 (24F.10C12.G12), or 10 μg/ml each of IgG2a (Mg2a-53) or IgG2b (MPC-11) isotype control antibodies (Abcam) at the start of the 4 day stimulation period with anti-CD3 (purified OKT3, 0.5 μg/ml) and irradiated APCs. […]

The test system is the same in assay [2]. Put plainly: Proliferation assay (Ki67 staining) with PDL-1/2 blockade and p38 inhibitor. In kind it is cell-based, human. The settings on record: CD8+ T cells at all four stages of differentiation (N, CM, EM, EMRA); 4 days anti-CD3 and irradiated autologous APCs; 10 μg/ml PDL1/2 blocking antibodies, 500 nM BIRB796; 4 donors. As for the experimental part: It was investigated whether either PD-1 or p38 signalling pathways contributed to the decreased proliferative activity of EMRA CD8^+ T cells. The four CD45RA/CD27 defined T cell subsets were isolated and then stimulated with anti-CD3 antibody and irradiated autologous APCs in the presence of either 10 μg/ml PDL1/2 blocking antibodies, 500 nM BIRB796 or both inhibitors together. Proliferative activity was determined by staining with Ki67 antibody. Representative histograms for the EMRA subset with and without the inhibitors is shown in FIG. 4A, while pooled results from all four subsets from 4 separate donors is shown in FIG. 4B.
PBMCs or sorted CD8^+ T cells were stimulated with 0.5 μg/ml plate coated anti-CD3 (OKT3) for 4 days and proliferation was assessed by staining for the nuclear antigen Ki67 that is expressed by cells at all stages of the cell cycle.
Signalling through PD-1 on purified total CD8^+ and CD27/CD45RA defined CD8^+ subsets was blocked by adding 10 μg/ml each of anti-PD-L1 (29E.2A3.C6) and anti-PD-L2 (24F.10C12.G12), or 10 μg/ml each of IgG2a (Mg2a-53) or IgG2b (MPC-11) isotype control antibodies (Abcam) at the start of the 4 day stimulation period with anti-CD3 (purified OKT3, 0.5 μg/ml) and irradiated APCs. The p38 inhibitor BIRB796 was added to the 4 day cultures at a final concentration of 500 nM and 0.1% DMSO was used as control.

With `Cc1ccc(-n2nc(C(C)(C)C)cc2NC(=O)Nc2ccc(OCCN3CCOCC3)c3ccccc23)cc1` [BIRB796], the telomerase activity result is on record as “significant increase” in assay [1] (CD45RA+CD27− (EMRA) CD8+ population, 500 nM BIRB796, 10 μg/ml anti-PDL1/2, p<0.05, 4 donors); “trend towards increased telomerase activity” in assay [1] (N, CM and EM CD8+ T cells, p38 signalling blocked (500 nM BIRB796), results not significant). Besides, the “proliferative activity (Ki67 staining)” value in assay [2] is listed as “increased proliferative activity”.

Source of the values: patent publication US20150017185A1, “METHOD TO IMPROVE THE IMMUNE FUNCTION OF T CELLS” (UCL BUSINESS PLC, priority 2011, published 2015).
